Tests used:
Bel-7402 = experiment: Cytotoxicity against human Bel7402 cells after 72 hrs by SRB assay; format: functional, cell-based; conditions: Bel-7402, 72 h
[1] = Cytotoxicity against human WI38 cells after 72 hrs by SRB assay; format: cell-based; conditions: WI-38, 72 h
HT-29 = experiment: cells; conditions: Homo sapiens, HT-29, 72 h
Description: Cytotoxicity against human HT-29 cells after 72 hrs by SRB assay

SK-BR-3 = experiment: Cytotoxicity against human SKBR3 cells after 72 hrs by SRB assay; format: functional, cell-based; conditions: SK-BR-3, 72 h
Calu-3 = experiment: Cytotoxicity against human Calu3 cells after 72 hrs by SRB assay; format: functional, cell-based; conditions: Calu-3, 72 h
NCI-H460 = experiment: Cytotoxicity against human NCI-H460 cells after 72 hrs by SRB assay; format: functional, cell-based; conditions: NCI-H460, 72 h
SGC-7901 = experiment: Cytotoxicity against human SGC7901 cells after 72 hrs by SRB assay; format: functional, cell-based; conditions: SGC-7901, 72 h

| Structure (SMILES) | IC50 (Bel-7402) | IC50 [1] | further results |
| --- | --- | --- | --- |
| COc1cc(-c2cnc(C)nc2-c2ccccc2O)cc(OC)c1OC | > 10 µM | > 10 µM |  |
| COc1cccc2c1C(=O)c1c(O)c3c(c(O)c1C2=O)C[C@@](O)(C(=O)CO)C[C@@H]3O[C@H]1C[C@H](N)[C@H](O)[C@H](C)O1 [DOXORUBICIN] | 0.021 µM | > 10 µM | IC50 (HT-29): 0.018 µM |
| CS(=O)(=O)CCNCc1ccc(-c2ccc3ncnc(Nc4ccc(OCc5cccc(F)c5)c(Cl)c4)c3c2)o1 [LAPATINIB] |  | > 10 µM | IC50 (SK-BR-3): 0.017 µM |
| Cc1ncc(-c2ccc(Cl)cc2)c(-c2ccccc2O)n1 | > 10 µM | > 10 µM |  |
| Nc1ncc(-c2ccc(OCCN3CCCC3)cc2)c(-c2ccccc2O)n1 | > 10 µM | > 10 µM |  |
| COC(=O)c1ncc(-c2ccc(OC)cc2)c(-c2ccccc2O)n1 | > 10 µM | > 10 µM |  |
| Cc1ncc(-c2ccccc2F)c(-c2ccccc2O)n1 | > 10 µM | > 10 µM |  |
| Nc1ncc(-c2ccccc2F)c(-c2ccccc2O)n1 | > 10 µM | > 10 µM |  |
| Cc1ncc(-c2ccc(OC(F)(F)F)cc2)c(-c2ccccc2O)n1 | > 10 µM | > 10 µM |  |
| CNC(=O)c1ncc(-c2ccc(OC)cc2)c(-c2ccccc2O)n1 | > 10 µM | > 10 µM |  |
| Nc1ncc(-c2ccc(O)cc2)c(-c2ccccc2O)n1 | > 10 µM | > 10 µM |  |
| Cc1ncc(-c2ccc(N)cc2)c(-c2ccccc2O)n1 | > 10 µM | > 10 µM |  |
| Cc1ncc(-c2ccc(NC(=O)OC(C)(C)C)cc2)c(-c2ccccc2O)n1 | > 10 µM | > 10 µM |  |
| CC(=O)O[C@@]12CO[C@@H]1C[C@H](O)[C@@]1(C)C(=O)[C@H](O)C3=C(C)[C@@H](OC(=O)[C@H](O)[C@@H](NC(=O)OC(C)(C)C)c4ccccc4)C[C@@](O)([C@@H](OC(=O)c4ccccc4)[C@H]21)C3(C)C [DOCETAXEL] |  | > 10 µM | IC50 (Calu-3): 0.1 µM; IC50 (NCI-H460): 0.0097 µM; IC50 (SGC-7901): 0.0084 µM |
| Nc1ncc(-c2cccc(C(F)(F)F)c2)c(-c2ccccc2O)n1 | > 10 µM | > 10 µM |  |
| Cc1ncc(-c2cccc(C(F)(F)F)c2)c(-c2ccccc2O)n1 | > 10 µM | > 10 µM |  |
| COc1cc(-c2cnc(N)nc2-c2ccccc2O)cc(OC)c1OC | > 10 µM | > 10 µM |  |
| Nc1ncc(-c2ccc(OCCCOCc3ccccc3)cc2)c(-c2ccccc2O)n1 | > 10 µM | > 10 µM |  |
| Nc1ncc(-c2ccc(OC(F)(F)F)cc2)c(-c2ccccc2O)n1 | > 10 µM | > 10 µM |  |

Source: ChEMBL document CHEMBL1139298, “Synthesis and biological evaluation of novel 2,4,5-substituted pyrimidine derivatives for anticancer activity” (Bioorg Med Chem Lett, 2009)
